Results: PMC5346723, “Delivery of a peptide-drug conjugate targeting the blood brain barrier improved the efficacy of paclitaxel against glioma” (Oncotarget, 2016)
Peptide text beside a SMILES is read from it. * marks the point of attachment. Biotin = O=C1N[C@H]2[C@H](CS[C@H]2CCCCC(=O)*)N1

Experiments:
U87 glioblastoma cells = test: MTT assay; type: cell-based, human; conditions: 1 × 10^5 cells/100 μl/well, 96-well, 37°C, sample concentration for the table not stated (0.1-2.5 mg/mL tested), absorbance 570 nm
Method: The cytotoxicity of ANG, ANG-TAT, ANG-PTX and ANG-TAT-PTX were determined using the 3-[4,5-dimethylthiazol-2-yl]-2,5-diphenyl tetrazolium bromide (MTT) assay. Human U87 glioblastoma cell (1×10^5 cells/100 μl per well) were cultured in 96-well plates at 37°C in 5% CO2. Aqueous solutions of the samples were dissolved in culture medium at final concentrations of 0.1, 0.5, 1, and 2.5 mg/mL. After incubation for 24 and 48 hours, the MTT solution (in 2 mg/mL phosphate-buffered saline) was added, the plates were incubated for 4 hours, and the cells were lysed with 50% N, N-dimethylformamide containing 20% sodium dodecyl sulfate (pH 4.5). Absorbance at 570 nm was measured for each well using a SpectraMax M5 (Molecular Devices, Sunnyvale, CA USA). The absorbance of control cells was taken as 100% viability, and the values of the treated cells were calculated as a percentage of the control.

[1] = tested on: U87 glioblastoma brain tumor tissue; test: Brain extraction of biotin labelled peptides after tail vein injection in mice with intracerebral U87 tumors; type: in vivo, CD-1 nude mice; conditions: 50 μg/kg, brain removed 15 min after injection, tumor implanted right hemisphere, biotin quantitative kit, P<0.05
Method: Biotin ANG and biotin ANG-TAT (50 μg/kg body weight) were injected into the tail vein of CD-1 nude mice carrying intracerebral implants of U87 glioblastoma cells. Fifteen minutes after injection the mice were killed, and the brains were surgically removed. The brain tissues were dissected and maintained in cold saline containing protease inhibitors until processing. To compare normal and tumor brain tissue, the right hemisphere (implanted hemisphere) was compared with the left hemisphere (non-implanted hemisphere). To extract biotin ANG and biotin ANG-TAT, tissues were mechanically homogenized in homogenization buffer (0.1 M Tris–HCl, pH 5.0, 50 mM sucrose, 0.003% Tween-80, and protease inhibitor cocktail) on ice. Acetonitrile (ACN) 100% was added to a final concentration of 65% (v/v). The mixture was stirred for 10 min in a cold room and then centrifuged at 3000 r.p.m. for 5 min. Acetonitrile supernatants were collected and dried in a rotative evaporator and finally freeze-dried. The concentration of biotin ANG and biotin ANG-TAT in the samples was determined using biotin quantitative kit from Elabsciences, Inc (Shanghai, China).
The U87 cell line was used to assess peptide uptake in an animal model of glioma. Cells suspension were prepared at a final concentration of 1×10^4 cells/ml in PBS and kept on ice until injection. […]

| Structure (SMILES) | MTT assay of ANG-TAT-PTX in tumor cells, 24h (U87 glioblastoma cells; 5% CO2, 24 h incubation) | MTT assay of ANG-TAT-PTX in tumor cells, 48h (U87 glioblastoma cells; 5% CO2, 48 h incubation) | Amount extracted from tumor tissue relative to biotin ANG [1] |
| --- | --- | --- | --- |
| CC(=O)O[C@H]1C(=O)[C@@]2(C)[C@H]([C@H](OC(=O)c3ccccc3)[C@]3(O)C[C@H](OC(=O)[C@H](O)[C@@H](NC(=O)c4ccccc4)c4ccccc4)C(C)=C1C3(C)C)[C@]1(OC(C)=O)CO[C@@H]1C[C@@H]2O [Free PTX, Paclitaxel] | 20.53±2.21 | 42.36±2.35 | – |
| C[C@@H](O)[C@H](N)C(=O)N[C@@H](Cc1ccccc1)C(=O)N[C@@H](Cc1ccccc1)C(=O)N[C@@H](Cc1ccc(O)cc1)C(=O)NCC(=O)NCC(=O)N[C@@H](CO)C(=O)N[C@@H](CCCNC(=N)N)C(=O)NCC(=O)N[C@@H](CCCCN)C(=O)N[C@@H](CCCNC(=N)N)C(=O)N[C@@H](CC(N)=O)C(=O)N[C@@H](CC(N)=O)C(=O)N[C@@H](Cc1ccccc1)C(=O)N[C@@H](CCCCNC(=O)CCCC[C@@H]1SC[C@@H]2NC(=O)N[C@@H]21)C(=O)N[C@H](C(=O)N[C@@H](CCC(=O)O)C(=O)N[C@@H](CCC(=O)O)C(=O)N[C@@H](Cc1ccc(O)cc1)C(=O)NCC(=O)N[C@@H](CCCNC(=N)N)C(=O)N[C@@H](CCCCN)C(=O)N[C@@H](CCCCN)C(=O)N[C@@H](CCCNC(=N)N)C(=O)N[C@@H](CCCNC(=N)N)C(=O)N[C@@H](CCC(N)=O)C(=O)N[C@@H](CCCNC(=N)N)C(=O)N[C@@H](CCCNC(=N)N)C(=O)N[C@@H](CCCNC(=N)N)C(=O)N1CCC[C@H]1C(=O)N1CCC[C@H]1C(=O)N[C@@H](CCC(N)=O)C(=O)N[C@@H](CCC(N)=O)C(=O)O)[C@@H](C)O [biotin ANG-TAT] (H-TFFYGGSRGKRNNFK(Biotin)TEEYGRKKRRQRRRPPQQ-OH) | – | – | 1.8 fold |
